The NIST ThermoML archive (doi:10.1021/acs.jced.5b00346)

Test: molar heat capacity at constant pressure
Details: Liquid, Large sample (1 g) DSC

CCF [fluoroethane]
molar heat capacity at constant pressure [J/K/mol]
Details	2160 kPa	2580 kPa	3100 kPa	3480 kPa	4030 kPa	4460 kPa	4990 kPa	5490 kPa
305.15 K	105.01	104.34	103.9	104.19	104.67	104.39	103.81	102.94
310.15 K	107.51	106.21	106.31	106.26	105.59	105.06	105.25	104.39
315.15 K	109.82	108.66	109	108.23	107.36	106.26	106.55	105.83
320.15 K	112.17	111.69	111.64	110.44	109.53	108.18	107.94	107.46
325.15 K	–	114.86	114.09	112.89	111.88	110.87	109.67	109.34
330.15 K	–	117.79	116.59	115.92	114.57	114	112.07	111.5
335.15 K	–	–	120.68	119.81	117.99	117.51	115.25	114.14
340.15 K	–	–	129.47	125.24	122.65	121.4	119.28	117.41
345.15 K	–	–	–	132.6	128.7	126.06	124.23	121.69
350.15 K	–	–	–	–	136.59	132.45	130.05	127.26
355.15 K	–	–	–	–	148.79	142.5	136.68	134.37
360.15 K	–	–	–	–	–	159.27	147.49	142.78
